Experimental data: PubChem BioAssay AID1963981 (Molecular Pharmacology Branch, DTP, NCI, 2024)
One block for each molecule: values may come before it.

Test system: 354836-022-R-J1-PDC multicell spheroid viability
Experiment: Anticancer human tumor 354836-022-R-J1-PDC patient-derived head and neck squamous cell carcinoma cell line growth inhibition [PI3K]
Settings: for IC50: curve of first compound; for viability, T/C: stronger effect = lower value
From the text: Combinatorial screen of targeted agents with the PI3K inhibitors inavolisib, alpelisib, duvelisib, and copanlisib in multi-cell type tumor spheroids
A high-throughput screen of multi-cell type tumor spheroids was designed to identify active combinations of targeted small molecules and PI3K pathway inhibitors. Complex spheroids include a stromal component modeled by human endothelial cells (HUVEC) and fibroblasts modeled by human mesenchymal stem cells (MSCs). The concentration ranges selected for each drug and investigational agent were based upon clinically achievable concentrations if the clinical Cmax of the agent was known.
Compounds. The drugs and investigational agents: inavolisib (NSC800729), alpelisib (NSC765974), duvelisib (NSC772469), copanlisib (NSC816437), ipatasertib (NSC767898), afuresertib (NSC778305), talazoparib (NSC767125), sapanisertib (NSC764658), selumetinib (NSC741078), tovorafenib (DAY101, NSC766906), vemurafenib (NSC761431), ravoxertinib (NSC781343), sotorasib (NSC818433), MRTX1133 (NSC 836407), abemaciclib (NSC 768073), palbociclib (NSC758247), venetoclax (NSC 766270), SY5609 (NSC837396), enzalutamide (NSC755605), and darolutamide (NSC825331), were obtained from the National Cancer Institute (NCI) Developmental Therapeutics Program Chemical Repository. The FDA-approved anticancer drug set is available from the NCI Developmental Therapeutics Program. […] The stock solutions were prepared in dimethyl sulfoxide (DMSO, Sigma-Aldrich, St. Louis, MO, cat. D2650) at 800-fold the tested concentration and stored at -70 degrees C prior to their use. All drugs and investigational agents were tested over a range starting from a high concentration at or near the clinical Cmax and decreasing in half-log increments. If the clinical Cmax for an agent had not been determined, the highest concentration tested was 10 microM.
Cell Culture. All cells were maintained in an incubator at 37 degrees C and 5% CO2 with 95% humidity. The PDC lines were cultured according to standard operating procedures established by the NCI PDMR (https://pdmr.cancer.gov/sops/default.htm). All PDCs were thawed and cultured in Matrigel-coated flasks prepared with a working solution of 1X Ham's F-12 nutrient mix, without supplementation (Invitrogen, Waltham, MA, cat. 11765054), 100 U/mL penicillin-streptomycin (Invitrogen, cat. 15140122), and 2.5% Matrigel (Corning Inc., Corning, NY, cat. 354248) for the first three passages. The 354836-022-R-J1-PDC, 475296-252-R-J1-PDC, and 997726-040-R-J2-PDC lines were cultured in 6A media, which includes advanced DMEM/F-12 (Thermo Fisher Scientific, cat. 12634028), 10 mM HEPES (Thermo Fisher Scientific, cat. 15630080), 1X GlutaMAX supplement (Thermo Fisher Scientific, cat. 35050061), 0.1 mg/mL primocin (InvivoGen, San Diego, CA, cat. ant-pm-2), 10% defined fetal bovine serum, heat inactivated (HyClone Laboratories Inc., Logan, UT, cat. SH30070.03HI), 50% L-WRN conditioned media (ATCC, cat. CRL-3276), 1.25 mM N-Acetyl-L-cysteine (Sigma-Aldrich, cat. A9165), 10 mM nicotinamide (Sigma-Aldrich, cat. N0636), 1X B-27 supplement (Thermo Fisher Scientific, cat. 17504044), 1X N-2 supplement (Thermo Fisher Scientific, cat. 17502048), and 10 microM Y-27632 dihydrochloride (Tocris Bioscience, Bristol, United Kingdom, cat. 1254). The 624824-186-R-J2-PDC line was cultured in 6C/Colon 1B media, which includes all 6A media components plus 50 ng/mL human EGF recombinant protein (Thermo Fisher Scientific, cat. PHG0311). […]

[1] = second compound 0.00316 µM, first compound 0.0316 µM
[2] = second compound 0.00316 µM, first compound 0.1 µM
[3] = second compound 0.00316 µM, first compound 0.316 µM
[4] = second compound 0.00316 µM, first compound 1 µM
[5] = second compound 0.00316 µM, first compound 3.16 µM
[6] = second compound 0.00316 µM, first compound 10 µM
[7] = second compound 0.01 µM, first compound 0.0316 µM
[8] = second compound 0.01 µM, first compound 0.1 µM
[9] = second compound 0.01 µM, first compound 0.316 µM
[10] = second compound 0.01 µM, first compound 1 µM
[11] = second compound 0.01 µM, first compound 3.16 µM
[12] = second compound 0.01 µM, first compound 10 µM
[13] = second compound 0.0316 µM, first compound 0.0316 µM
[14] = second compound 0.0316 µM, first compound 0.1 µM
[15] = second compound 0.0316 µM, first compound 0.316 µM
[16] = second compound 0.0316 µM, first compound 1 µM
[17] = second compound 0.0316 µM, first compound 3.16 µM
[18] = second compound 0.0316 µM, first compound 10 µM
[19] = second compound 0.1 µM, first compound 0.0316 µM
[20] = second compound 0.1 µM, first compound 0.1 µM
[21] = second compound 0.1 µM, first compound 0.316 µM
[22] = second compound 0.1 µM, first compound 1 µM
[23] = second compound 0.1 µM, first compound 3.16 µM
[24] = second compound 0.1 µM, first compound 10 µM
[25] = second compound 0.316 µM, first compound 0.0316 µM
[26] = second compound 0.316 µM, first compound 0.1 µM
[27] = second compound 0.316 µM, first compound 0.316 µM
[28] = second compound 0.316 µM, first compound 1 µM
[29] = second compound 0.316 µM, first compound 3.16 µM
[30] = second compound 0.316 µM, first compound 10 µM
[31] = second compound 1 µM, first compound 0.0316 µM
[32] = second compound 1 µM, first compound 0.1 µM
[33] = second compound 1 µM, first compound 0.316 µM
[34] = second compound 1 µM, first compound 1 µM
[35] = second compound 1 µM, first compound 3.16 µM
[36] = second compound 1 µM, first compound 10 µM
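Further: spheroids exposed to agents for seven days before the viability read.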

IC50 (second compound 0.00316 µM): 242 nM
IC50 (second compound 0.01 µM): 328 nM
IC50 (second compound 0.0316 µM): 333 nM
IC50 (second compound 0.1 µM): 590 nM
IC50 (second compound 0.316 µM): 202 nM
IC50 (second compound 1 µM): 72.2 nM
SMILES: CC(C)NCC(C(=O)N1CCN(c2ncnc3c2C(C)CC3O)CC1)c1ccc(Cl)cc1 (centres undefined) + CC(Nc1ccc2c(c1)OCCn1cc(N3C(=O)OCC3C(F)F)nc1-2)C(N)=O
viability, T/C [1]: 82.9%
viability, T/C [2]: 69.4%
viability, T/C [3]: 42.8%
viability, T/C [4]: 26.7%
viability, T/C [5]: 22.1%
viability, T/C [6]: 12.5%
viability, T/C [7]: 95.5%
viability, T/C [8]: 68.5%
viability, T/C [9]: 58.2%
viability, T/C [10]: 24.4%
viability, T/C [11]: 22.3%
viability, T/C [12]: 8.88%
viability, T/C [13]: 74.5%
viability, T/C [14]: 75%
viability, T/C [15]: 45.8%
viability, T/C [16]: 31.9%
viability, T/C [17]: 21.3%
viability, T/C [18]: 10.8%
viability, T/C [19]: 75.4%
viability, T/C [20]: 73.6%
viability, T/C [21]: 68.5%
viability, T/C [22]: 34.2%
viability, T/C [23]: 18.6%
viability, T/C [24]: 8.92%
viability, T/C [25]: 62.4%
viability, T/C [26]: 58.6%
viability, T/C [27]: 44.7%
viability, T/C [28]: 28.4%
viability, T/C [29]: 16.2%
viability, T/C [30]: 7.58%
viability, T/C [31]: 56.7%
viability, T/C [32]: 45.9%
viability, T/C [33]: 38.9%
viability, T/C [34]: 28%
viability, T/C [35]: 15.8%
viability, T/C [36]: 9.1%

IC50 (second compound 0.00316 µM): > 10000 nM
IC50 (second compound 0.01 µM): > 10000 nM
IC50 (second compound 0.0316 µM): > 10000 nM
IC50 (second compound 0.1 µM): > 10000 nM
IC50 (second compound 0.316 µM): > 10000 nM
IC50 (second compound 1 µM): 8450 nM
SMILES: CC(Cn1ccc(-c2ccc(C#N)c(Cl)c2)n1)NC(=O)c1cc(C(C)O)[nH]n1 (centres undefined) + CC(Nc1ccc2c(c1)OCCn1cc(N3C(=O)OCC3C(F)F)nc1-2)C(N)=O
viability, T/C [1]: 99.4%
viability, T/C [2]: 88.8%
viability, T/C [3]: 96.7%
viability, T/C [4]: 86.8%
viability, T/C [5]: 94.3%
viability, T/C [6]: 73.8%
viability, T/C [7]: 95.9%
viability, T/C [8]: 103%
viability, T/C [9]: 99.6%
viability, T/C [10]: 81.8%
viability, T/C [11]: 88.3%
viability, T/C [12]: 74.8%
viability, T/C [13]: 78.9%
viability, T/C [14]: 87.6%
viability, T/C [15]: 92.5%
viability, T/C [16]: 97.4%
viability, T/C [17]: 91.1%
viability, T/C [18]: 81.8%
viability, T/C [19]: 77.2%
viability, T/C [20]: 91.9%
viability, T/C [21]: 83.7%
viability, T/C [22]: 87.3%
viability, T/C [23]: 73.9%
viability, T/C [24]: 82.9%
viability, T/C [25]: 75.3%
viability, T/C [26]: 67.5%
viability, T/C [27]: 69.8%
viability, T/C [28]: 75.5%
viability, T/C [29]: 76.8%
viability, T/C [30]: 63.6%
viability, T/C [31]: 71.2%
viability, T/C [32]: 67.4%
viability, T/C [33]: 69.5%
viability, T/C [34]: 64.3%
viability, T/C [35]: 61.4%
viability, T/C [36]: 48%
